The source of these data is patent publication US20020034421A1, “Remediation of contaminates including low bioavailability hydrocarbons” (priority 2000, published 2002).

Converted amounts (≈) assume the structure as drawn. “And” between values parts separate entries of the source, which are not always exact repeats. Identical values can stand only once.

The conditions of data set [1]: Logarithm of the octanol: water partition coefficient; cited from earlier work.
Data set [2] in a line: Hydrogen peroxide oxidation of PAHs at near neutral pH (modified Fenton's reagent) in Quakertown silt loam.
For data set [3] the following is noted: Crystal solubility at 25° C.; cited from earlier work.
A short description of data set [4]: Fenton reaction degradation of PAHs in Quakertown silt loam. To be noted: for % reduced / degraded by Fenton reaction: ratio 10:1 ([H2O2:FeSO4]=[2.0 g:0.2 g]), 24-h oxidation, model soil.
The conditions of data set [5]: at 20° C.; cited from earlier work.
Data set [6] is described as follows: Fenton reaction degradation of PAHs in MGP soil. The settings on record: FR: Fenton's reagent treatment for 24 hours.
Excerpt: Coal tar-contaminated soil was collected from a former manufactured gas plant site in New Jersey. The soil was classified as loamy sand, consisting of 78% sand, 11% silt, and 11% clay.
Fenton's reagent was generated by mixing hydrogen peroxide (30%, w/v) with FeSO4.7H2O in varying ratios to determine the optimum conditions for the degradation of PAHs. The sequence of reagent addition seemed to be important to ensure that the reaction occurred efficiently, as well as to ensure that the reaction could be safely maintained. Desired amounts of ferrous sulfate were added to 10 g of PAHs-spiked soil or 5 g of MGP soil in 20 mL of distilled water containing 0.02% HgCl2. To the soil slurry, hydrogen peroxide was introduced gradually by pipetting (ca. 0.3 g each with 10-min intervals), and the reaction was allowed to occur for 24 h on an orbital platform shaker at room temperature.
The soil slurry used for either biodegradation or Fenton-type reaction, or both, was transferred to a 50-mL Teflon centrifuge tube and centrifuged at 18,600× g for 15 min. After removing the supernatant, 10 mL each of dichloromethane and acetone were added to the soil and the soil-solvent suspension was shaken (200 rpm) for 48 h at 30° C. for the extraction of PAHs. The tube was then centrifuged at 18,600× g for 15 min and the solvent mixture was transferred to a 50-mL test tube. After removing excess water (upper layer; ca. 2 mL) by pipetting, 4 g of anhydrous sodium sulfate were mixed with the PAHs-containing solvent to remove residual water completely from solvent. […] The extract was then concentrated to 1 to 2 mL using an evaporator (Büchi Rotavapor; Buchler Instruments Inc., Fort Lee, N.J.) for further analysis.
The extract was passed through a 0.45-μm PTFE syringe filter to remove any particulates present and analyzed by a gas chromatograph (GC) equipped with a flame ionization detector (Varian Star 3500; Varian Chromatograph Systems, Walnut, Calif.). The GC was installed with a Rtx-5 silica column crossbonded with 5% diphenyl and 95% dimethylpolysiloxane (30 m×0.53 mm inner diameter; Restek Corporation, Bellefonte, Pa.). The oven temperature was programmed at 40° C. for 6 min, followed by a linear increase of 10° C. per minute to 300° C., and then the temperature was held for 15 min. Injector and detector temperatures were maintained at 300° C. Two microliters of the extract were injected and nitrogen was used as a carrier gas.
Where [7] appears, read: mFR + gallic acid, pH ca. 6.0-6.5.
The mark [8] stands for this setting: Hydrogen Peroxide (2g), 100 mg Ferrous Sulfate, Quakertown silt loam.
[9] abbreviates: Hydrogen Peroxide (2g), 200 mg Ferrous Sulfate, Data from TABLE 3.
[10] abbreviates: Hydrogen Peroxide (2g), No FeSO4, Quakertown silt loam.
The mark [11] stands for this setting: ratio 5:1, [H2O2:FeSO4] = [1.0 g:0.2 g], 24 h, Quakertown silt loam.
[12] abbreviates: ratio 10:1 (footnote d), [H2O2:FeSO4] = [0.2 g:0.2 g] [sic], 24 h, Quakertown silt loam.
Where [13] appears, read: ratio 10:1 (footnote e), [H2O2:FeSO4] = [1.0 g:0.1 g], 24 h, Quakertown silt loam.
The mark [14] stands for this setting: ratio head 1.1, [H2O2:FeSO4] = [0.2 g:0.2 g], 24 h, Quakertown silt loam.

Regarding `c1ccc2cc3ccccc3cc2c1` [Anthracene, anthracene], in data set [1], the “Log Kow” value is on record as 4.45. Also, the “% remaining in soil” value in data set [2] (FR + CaCO3, pH ca. 6.0-6.5) was 78.1a %; in data set [2] (mFR + catechol, pH ca. 6.0-6.5), 70.8ab %; in data set [2] (setting [7]), 66.8b %; in data set [4] (setting [8]) it was 76.3b %; in data set [4] (setting [9]), 61.9c %; in data set [4] (setting [10]) it was 92.7a %. Also, the “% remaining in soil” value in data set [4] (setting [11]) came out at 75.9b %; in data set [4] (setting [12]), 61.9c %; in data set [4] (setting [13]) it was 79.3b %; in data set [4] (setting [14]) it was 100a %. Also, the Solubility in water in data set [3] is 0.07 µg/mL (≈ 0.393 µM). In addition, the “% reduced / degraded by Fenton reaction” value in data set [4] is “about 40%”. In data set [5], the “Vapor Pressure” value was 1.9 × 10^−4.

As for `c1cc2ccc3cccc4ccc(c1)c2c34` [Pyrene, pyrene], the “Log Kow” value in data set [1] is on record as 5.32. The “% remaining in soil” value was 77.1a % in data set [2] (FR + CaCO3, pH ca. 6.0-6.5); 58.3b % in data set [2] (mFR + catechol, pH ca. 6.0-6.5); 58.9b % in data set [2] (setting [7]); 16.3b % in data set [4] (setting [8]); 15.5c % in data set [4] (setting [9]); 88.3a % in data set [4] (setting [10]). In addition, the “% remaining in soil” value in data set [4] (setting [11]) was found to be 51.0b %; in data set [4] (setting [12]), 15.5c %; in data set [4] (setting [13]), 26.3d %; in data set [4] (setting [14]), 95.4a %; in data set [6], 53.4a %. Besides, in data set [5], the “Vapor Pressure” value is reported as 6.8 × 10^−7.

Regarding `c1ccc2c(c1)Cc1ccccc1-2` [Fluorene, fluorene], in data set [1], the “Log Kow” value is 4.18. Further, the “% remaining in soil” value in data set [6] is 10.3a %. In addition, the “Vapor Pressure” value in data set [5] is reported as 1.3 × 10^−2.

Take `c1ccc2c(c1)cc1ccc3cccc4ccc2c1c34` [Benzo(a)pyrene, benzo(a)pyrene]: the “% remaining in soil” value in data set [2] (FR + CaCO3, pH ca. 6.0-6.5) was 73.1a %; in data set [2] (mFR + catechol, pH ca. 6.0-6.5), 54.8b %; in data set [2] (setting [7]) it was 49.6b %; in data set [4] (setting [8]), 10.5b %; in data set [4] (setting [9]), 3.3c %; in data set [4] (setting [10]) it was 73.2a %. Also, the “% remaining in soil” value in data set [4] (setting [11]) is 35.3b %; in data set [4] (setting [12]), 3.3% and 3.3c %; in data set [4] (setting [13]), 60.9d %; in data set [4] (setting [14]), 84.8a %.

With `c1ccc2c(c1)ccc1c3ccccc3ccc21` [Chrysene, chrysene], the “Log Kow” value in data set [1] is 5.61. Moreover, the “% remaining in soil” value in data set [2] (FR + CaCO3, pH ca. 6.0-6.5) is recorded as 100a %; in data set [2] (mFR + catechol, pH ca. 6.0-6.5) it was 100a %; in data set [2] (setting [7]) it was 91.1b %; in data set [4] (setting [8]), 72.6a %; in data set [4] (setting [9]), 88.1b %; in data set [4] (setting [10]) it was 77.0ab %. The “% remaining in soil” value in data set [4] (setting [11]) is reported as 87.0b %; in data set [4] (setting [12]), 88.1b %; in data set [4] (setting [13]), 98.2c %; in data set [4] (setting [14]), 100a %; in data set [6], 50.8b %. In addition, in data set [3], the Solubility in water is 0.006 µg/mL (≈ 0.0263 µM). The “% reduced / degraded by Fenton reaction” value in data set [4] is about 12%. For the same compound, the “Vapor Pressure” value in data set [5] was 6.3 × 10^−7.

Consider `c1ccc2ccccc2c1` [Naphthalene, naphthalene], for which the Solubility in water in data set [3] was 32 µg/mL (≈ 250 µM). In data set [5], the “Vapor Pressure” value is 4.9 × 10^−2.

For `c1ccc2c(c1)ccc1ccccc12` [Phenanthrene, phenanthrene], the “Log Kow” value in data set [1] is given as 4.46. Besides, the Solubility in water in data set [3] is 1.0 µg/mL (≈ 5.61 µM). For the same compound, the “% remaining in soil” value in data set [6] came out at 16.8a %. Further, the “Vapor Pressure” value in data set [5] was 6.8 × 10^−4.
